Measured values: article PMC9146934 (Membranes, 2022)
Where “and” joins values, the source holds several entries; their conditions need not be identical. Equal values may be shown once. Read-outs that look alike come from different tables or passages of the source.

Experiments:
Ap-RDL1 GABAr = biological target: T1, Ap-RDL1 GABAr (Acyrthosiphon pisum, UniProt A0A385J708, C18R); test: Two-electrode voltage-clamp of GABA-induced currents, Ap-RDL1 expressed in Xenopus laevis oocytes; assay type: cell-based
T1 sequence (A0A385J708 33-567 C18R): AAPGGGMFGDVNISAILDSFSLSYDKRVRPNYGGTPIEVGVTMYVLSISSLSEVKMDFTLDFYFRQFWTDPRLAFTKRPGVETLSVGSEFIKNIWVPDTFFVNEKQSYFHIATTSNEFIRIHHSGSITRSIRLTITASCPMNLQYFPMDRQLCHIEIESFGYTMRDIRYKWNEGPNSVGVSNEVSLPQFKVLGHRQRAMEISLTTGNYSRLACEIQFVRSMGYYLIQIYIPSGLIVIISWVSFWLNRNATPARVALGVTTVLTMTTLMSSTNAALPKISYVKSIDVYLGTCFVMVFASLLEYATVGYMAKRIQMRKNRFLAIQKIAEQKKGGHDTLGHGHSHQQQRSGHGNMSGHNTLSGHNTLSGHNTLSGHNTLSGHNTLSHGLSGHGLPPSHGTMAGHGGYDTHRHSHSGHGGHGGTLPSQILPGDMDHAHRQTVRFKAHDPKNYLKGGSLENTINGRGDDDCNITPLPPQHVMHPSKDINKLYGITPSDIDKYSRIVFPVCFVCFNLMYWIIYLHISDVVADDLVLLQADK
Method: (§1) cRNAs were in vitro synthesized from linearized plasmids using the M-message M-machine transcription kit (Thermo Fisher, Waltham, MA USA) following the manufacturer’s instructions. The cRNA concentration was adjusted to 1 µg/µL. Preparation and injection of X. laevis oocytes were completed as previously described. The oocytes were injected with 30 nL of a solution containing the cRNA of interest. Injected oocytes were maintained at 19 °C in a survival solution containing (in mM): NaCl, 96; KCl, 2; CaCl2, 1.8; MgCl2, 1; Hepes, 5; Na-pyruvate, 2.5; and gentamycin, 0.025, pH = 7.2 with NaOH, renewed daily.
(§2) Expressed currents were recorded at room temperature using the two-electrode voltage-clamp method 1–3 days after injection. Electrodes were pulled from borosilicate glass (Warner, ref GC150T10) and filled with 3 M KCl. […] Drugs were applied using a gravity-driven perfusion system at a speed of 2 mL/min.
(§3) Oocytes were perfused with the following ND solution (in mM): NaCl, 96; KCl, 3; CaCl2, 0.5; MgCl2, 1; HEPES, 5, with pH set at 7.4 with NaOH at ~1 mL/min. The reversal potential of the Ap-RDL receptor was measured in solutions containing (in mM): NaCl, Na-acetate or TEACl (tetraethylammonium chloride), 100; HEPES, 5 with pH set at 7.4, with NaOH or TEAOH. […] Fipronil or picrotoxin were dissolved at the final concentrations from stock solutions in DMSO (dimethylsulfoxide) at 200 and 10 mM, respectively. The final DMSO concentration was always less than 0.2%.
(§4) With Rel.Cur. the current amplitude at each concentration relative to the current recorded in the absence of antagonist; IC50, the concentration for half-maximum inhibition, log ([Inhib]) the logarithm of the inhibitor concentration, and p a slope factor.
(§5) With t, the time of the recording; Rel.Cur., the current amplitude at each concentration relative to the current recorded in the absence of antagonist; Amp, the amplitude of the exponential, Tau Block, the time constant of the exponential, and R the residual non-inhibited current at the steady-state of the effects. The relative block (Rel.B) is estimated as 1-R expressed in %.

Am-RDL GABAr = biological target: T2, Am-RDL GABAr (Apis mellifera, UniProt A0A8U0Y4W2); test: Two-electrode voltage-clamp of GABA-induced currents, Am-RDL expressed in Xenopus laevis oocytes; assay type: cell-based
T2 sequence (A0A8U0Y4W2 19-476): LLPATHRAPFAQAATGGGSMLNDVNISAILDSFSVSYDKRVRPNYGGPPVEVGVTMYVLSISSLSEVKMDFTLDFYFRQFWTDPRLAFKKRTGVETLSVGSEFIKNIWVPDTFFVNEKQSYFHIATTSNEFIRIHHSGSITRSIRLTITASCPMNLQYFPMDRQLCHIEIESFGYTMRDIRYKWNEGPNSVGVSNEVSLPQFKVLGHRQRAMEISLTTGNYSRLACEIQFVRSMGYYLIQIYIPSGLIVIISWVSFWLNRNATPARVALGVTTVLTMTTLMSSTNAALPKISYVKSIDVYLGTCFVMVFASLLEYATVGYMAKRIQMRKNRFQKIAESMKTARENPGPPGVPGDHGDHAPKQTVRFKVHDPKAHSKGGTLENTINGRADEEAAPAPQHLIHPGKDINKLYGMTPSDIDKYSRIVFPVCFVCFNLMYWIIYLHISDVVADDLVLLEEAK
Method: as §1, §2, §3, §4, §5

Vd-RDL1 GABAr = biological target: T3, Vd-RDL1 GABAr (Varroa destructor, UniProt A0A343W7T5); test: Two-electrode voltage-clamp of GABA-induced currents, Vd-RDL1 expressed in Xenopus laevis oocytes; assay type: cell-based
T3 sequence (A0A343W7T5 35-585): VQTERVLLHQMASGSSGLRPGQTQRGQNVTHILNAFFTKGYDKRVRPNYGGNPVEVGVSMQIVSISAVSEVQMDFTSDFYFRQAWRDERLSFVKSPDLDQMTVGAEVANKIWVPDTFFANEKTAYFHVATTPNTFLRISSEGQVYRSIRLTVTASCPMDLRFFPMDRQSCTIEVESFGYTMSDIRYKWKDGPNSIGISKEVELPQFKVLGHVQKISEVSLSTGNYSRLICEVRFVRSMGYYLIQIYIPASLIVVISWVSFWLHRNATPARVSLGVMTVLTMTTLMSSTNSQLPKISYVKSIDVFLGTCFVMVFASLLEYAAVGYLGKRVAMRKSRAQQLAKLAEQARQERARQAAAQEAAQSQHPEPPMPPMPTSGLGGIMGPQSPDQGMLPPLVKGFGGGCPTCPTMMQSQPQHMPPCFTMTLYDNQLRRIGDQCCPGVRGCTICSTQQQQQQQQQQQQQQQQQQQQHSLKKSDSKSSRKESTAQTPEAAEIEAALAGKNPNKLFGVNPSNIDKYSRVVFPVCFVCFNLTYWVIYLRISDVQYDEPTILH
Method: as §1, §2, §3, §4, §5

Vd-RDL2 GABAr = biological target: T4, Vd-RDL2 GABAr (Varroa destructor, UniProt A0A3G3MDS2); test: Two-electrode voltage-clamp of GABA-induced currents, Vd-RDL2 expressed in Xenopus laevis oocytes; assay type: cell-based
T4 sequence (A0A3G3MDS2 20-661): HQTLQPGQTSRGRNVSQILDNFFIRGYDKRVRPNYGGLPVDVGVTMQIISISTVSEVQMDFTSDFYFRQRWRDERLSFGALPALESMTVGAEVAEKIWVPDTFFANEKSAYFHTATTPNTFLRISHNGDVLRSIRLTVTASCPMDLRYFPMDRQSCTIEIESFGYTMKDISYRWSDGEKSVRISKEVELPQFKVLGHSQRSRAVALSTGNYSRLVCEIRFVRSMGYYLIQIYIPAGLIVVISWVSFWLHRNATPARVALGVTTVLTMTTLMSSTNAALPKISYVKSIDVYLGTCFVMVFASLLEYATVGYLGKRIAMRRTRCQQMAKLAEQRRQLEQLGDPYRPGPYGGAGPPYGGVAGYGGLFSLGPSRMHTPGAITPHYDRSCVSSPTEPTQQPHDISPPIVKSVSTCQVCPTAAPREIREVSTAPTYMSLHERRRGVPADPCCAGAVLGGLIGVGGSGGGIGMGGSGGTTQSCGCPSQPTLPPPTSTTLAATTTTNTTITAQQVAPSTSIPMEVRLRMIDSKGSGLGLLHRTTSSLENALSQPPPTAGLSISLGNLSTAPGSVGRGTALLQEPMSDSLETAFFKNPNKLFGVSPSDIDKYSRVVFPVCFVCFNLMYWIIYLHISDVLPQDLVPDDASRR
Method: as §1, §2, §3, §4, §5

Vd-RDL3 GABAr = biological target: T5, Vd-RDL3 GABAr (Varroa destructor, UniProt A0A343W7T7); test: Two-electrode voltage-clamp of GABA-induced currents, Vd-RDL3 expressed in Xenopus laevis oocytes; assay type: cell-based
T5 sequence (A0A343W7T7 31-591): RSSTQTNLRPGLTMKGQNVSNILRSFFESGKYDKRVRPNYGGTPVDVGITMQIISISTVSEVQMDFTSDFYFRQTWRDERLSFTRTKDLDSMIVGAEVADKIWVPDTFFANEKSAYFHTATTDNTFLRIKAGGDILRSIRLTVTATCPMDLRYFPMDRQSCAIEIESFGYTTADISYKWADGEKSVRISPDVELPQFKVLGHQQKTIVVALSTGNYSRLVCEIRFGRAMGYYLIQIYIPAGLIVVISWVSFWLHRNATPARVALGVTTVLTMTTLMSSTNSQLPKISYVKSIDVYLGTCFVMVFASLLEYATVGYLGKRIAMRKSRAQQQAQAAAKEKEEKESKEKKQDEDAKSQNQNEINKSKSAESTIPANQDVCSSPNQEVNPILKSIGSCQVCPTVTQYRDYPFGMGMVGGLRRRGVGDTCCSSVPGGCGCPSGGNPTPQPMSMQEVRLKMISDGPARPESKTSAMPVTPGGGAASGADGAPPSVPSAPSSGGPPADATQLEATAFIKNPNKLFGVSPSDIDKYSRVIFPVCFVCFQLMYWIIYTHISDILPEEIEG
Method: as §1, §2, §3, §4, §5

[1] = biological target: T6, Hs-α2β2γ2 GABA-A receptor (Homo sapiens, UniProt P18507+P47869+P47870); test: cell-based; assay type: cell-based
T6 construct: expressed in transfected cells; host or cells: Xenopus laevis oocytes (cRNA injection)
Method: as §1, §2, §3, §4, §5

[2] = biological target: T7, Hs-α4β2γ2 GABA-A receptor (Homo sapiens, UniProt P18507+P47870+P48169); test: Two-electrode voltage-clamp of GABA-induced currents, Hs-α4β2γ2 expressed in Xenopus laevis oocytes; assay type: cell-based
T7 construct: expressed in transfected cells; host or cells: Xenopus laevis oocytes (cRNA injection; α4 in pcDNA3.1(+))
Method: as §1, §2, §3, §4
as §5, with “The relative block (Rel.B) is estimated as 1-R expressed in %.” left out

A. pisum RDL1ad = conditions: read-out: IC50 for fipronil; cited from earlier work
A. pisum RDL1bd = conditions: text prints the receptor as Ap-RDL1; read-out: IC50 for fipronil; cited from earlier work
A. pisum RDL2b = conditions: text prints the receptor as Ap-RDL2; read-out: IC50 for fipronil; cited from earlier work
Hs-α1β2γ2 = conditions: read-out: IC50 for fipronil; cited from earlier work
[3] = peak current, oocytes clamped at −60 mV
[4] = dieldrin 1 µM, GABA 100 µM, mono-exponential fit
[5] = IC50 (inhibition of the GABA response), GABA 100 µM, inhibitor co-applied

T6 sequence (P47869 29-451): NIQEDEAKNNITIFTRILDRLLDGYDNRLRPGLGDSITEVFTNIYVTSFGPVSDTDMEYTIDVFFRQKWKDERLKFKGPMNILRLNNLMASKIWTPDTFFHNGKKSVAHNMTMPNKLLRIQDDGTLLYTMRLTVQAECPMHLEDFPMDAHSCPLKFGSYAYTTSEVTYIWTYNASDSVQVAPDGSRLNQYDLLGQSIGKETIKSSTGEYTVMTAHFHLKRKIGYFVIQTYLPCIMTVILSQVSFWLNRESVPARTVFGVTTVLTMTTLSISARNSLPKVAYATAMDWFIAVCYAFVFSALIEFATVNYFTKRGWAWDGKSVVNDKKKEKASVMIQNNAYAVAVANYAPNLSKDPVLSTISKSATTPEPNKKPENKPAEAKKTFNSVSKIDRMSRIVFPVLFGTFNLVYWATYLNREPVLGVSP
T6 sequence (P47870 25-512 limits assumed): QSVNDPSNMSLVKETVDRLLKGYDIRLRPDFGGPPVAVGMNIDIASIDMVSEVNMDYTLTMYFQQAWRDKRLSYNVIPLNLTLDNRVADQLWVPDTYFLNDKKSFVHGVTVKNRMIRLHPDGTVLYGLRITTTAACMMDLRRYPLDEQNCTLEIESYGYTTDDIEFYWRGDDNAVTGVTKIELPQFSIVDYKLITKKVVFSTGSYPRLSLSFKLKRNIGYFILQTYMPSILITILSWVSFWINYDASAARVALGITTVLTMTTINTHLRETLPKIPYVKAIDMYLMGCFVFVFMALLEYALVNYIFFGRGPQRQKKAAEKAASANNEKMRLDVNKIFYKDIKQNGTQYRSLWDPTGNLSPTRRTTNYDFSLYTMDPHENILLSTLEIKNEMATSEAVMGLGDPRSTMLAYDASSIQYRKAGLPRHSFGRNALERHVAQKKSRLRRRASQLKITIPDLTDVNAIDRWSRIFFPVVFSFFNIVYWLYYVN
T6 sequence (P18507 40-475): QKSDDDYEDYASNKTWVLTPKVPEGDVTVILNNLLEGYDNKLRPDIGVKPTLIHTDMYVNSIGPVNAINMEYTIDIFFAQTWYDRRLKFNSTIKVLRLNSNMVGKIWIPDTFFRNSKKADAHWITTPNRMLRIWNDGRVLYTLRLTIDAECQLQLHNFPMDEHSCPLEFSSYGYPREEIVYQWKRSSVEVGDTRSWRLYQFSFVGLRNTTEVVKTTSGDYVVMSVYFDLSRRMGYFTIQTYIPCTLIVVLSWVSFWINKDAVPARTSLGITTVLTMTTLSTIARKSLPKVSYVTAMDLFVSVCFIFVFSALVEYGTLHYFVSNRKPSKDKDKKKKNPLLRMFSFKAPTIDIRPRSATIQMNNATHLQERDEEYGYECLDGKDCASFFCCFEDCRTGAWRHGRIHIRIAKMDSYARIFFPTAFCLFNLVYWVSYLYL
T7 sequence (P48169 36-554): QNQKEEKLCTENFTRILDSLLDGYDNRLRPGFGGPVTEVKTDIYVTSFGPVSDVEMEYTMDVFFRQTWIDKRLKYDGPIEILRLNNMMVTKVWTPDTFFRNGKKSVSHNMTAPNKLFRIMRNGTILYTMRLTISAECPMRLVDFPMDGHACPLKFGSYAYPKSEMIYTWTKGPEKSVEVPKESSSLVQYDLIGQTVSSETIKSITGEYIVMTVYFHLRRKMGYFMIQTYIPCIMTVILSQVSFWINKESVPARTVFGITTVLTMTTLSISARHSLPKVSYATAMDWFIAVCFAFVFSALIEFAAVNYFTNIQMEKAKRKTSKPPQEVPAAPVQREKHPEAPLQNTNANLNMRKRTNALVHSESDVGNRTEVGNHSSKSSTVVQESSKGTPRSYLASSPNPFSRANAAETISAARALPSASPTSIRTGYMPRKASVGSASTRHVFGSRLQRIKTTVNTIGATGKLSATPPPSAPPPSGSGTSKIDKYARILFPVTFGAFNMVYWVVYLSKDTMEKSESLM
T7 sequence (P47870 25-512 limits assumed): as the sequence (P47870 25-512 limits assumed) above
T7 sequence (P18507 40-475): as the sequence (P18507 40-475) above

## NCCCC(=O)O [GABA, γ-aminobutyric acid]
Ap-RDL1 GABAr; logistic fit
  p (slope factor) of GABA dose–response curve: 2.4 ± 0.3
Am-RDL GABAr
  EC50: 19.3 ± 3.5 µM
Am-RDL GABAr; logistic fit
  p (slope factor) of GABA dose–response curve: 2.1 ± 0.2
Vd-RDL1 GABAr; logistic fit
  p (slope factor) of GABA dose–response curve: 2.3 ± 0.2
Vd-RDL1 GABAr; [3]
  EC50: 269 ± 41 µM
Vd-RDL2 GABAr; logistic fit
  p (slope factor) of GABA dose–response curve: 1.8 ± 0.2
Vd-RDL3 GABAr; logistic fit
  p (slope factor) of GABA dose–response curve: 2.3 ± 0.1
Vd-RDL3 GABAr; [3]
  EC50: 43.1 ± 10.4 µM
[1]
  p (slope factor) of GABA dose–response curve: 1.4 ± 0.1
[2]; logistic fit
  p (slope factor) of GABA dose–response curve: 1.4 ± 0.2

## ClC1=C(Cl)[C@]2(Cl)[C@@H]3[C@@H]4C[C@@H]([C@H]5O[C@@H]45)[C@@H]3[C@@]1(Cl)C2(Cl)Cl [dieldrin]
Ap-RDL1 GABAr; Figure 6B, dieldrin 1 µM, GABA 50 µM
  time to reach steady-state inhibition during successive pulses at the same dose: more than 10 min
Ap-RDL1 GABAr; dieldrin 1 µM, repetitive GABA application, mono-exponential fit
  Tau-Block (time constant of block): 2 to 6 min
Am-RDL GABAr; dieldrin 1 µM, GABA 100 µM
  Rel.B (steady-state relative block): 80–91%
Am-RDL GABAr; [4]
  Tau-Block (time constant of block): 2 to 6 min
Vd-RDL1 GABAr; dieldrin 1 µM, GABA 300 µM
  Rel.B (steady-state block): ~20%
Vd-RDL1 GABAr; dieldrin 1 µM, GABA 300 µM, hard to evaluate, fitted
  Tau-Block (time constant of block): around 55 min
Vd-RDL2 GABAr; dieldrin 1 µM, GABA 100 µM
  Rel.B (steady-state relative block): 51 ± 1%
Vd-RDL2 GABAr; [4]
  Tau-Block (time constant of block): 2 to 6 min
Vd-RDL3 GABAr; dieldrin 1 µM, GABA 100 µM
  Rel.B (steady-state relative block): 80–91%
Vd-RDL3 GABAr; [4]
  Tau-Block (time constant of block): 2 to 6 min
[1]; dieldrin 1 µM, GABA 300 µM
  Rel.B (steady-state relative block): 80–91%
[1]; dieldrin 1 µM, GABA 300 µM, mono-exponential fit
  Tau-Block (time constant of block): 2 to 6 min
[2]; dieldrin 1 µM, GABA 100 µM
  Rel.B (steady-state relative block): 80–91%
[2]; [4]
  Tau-Block (time constant of block): 2 to 6 min

## N#Cc1nn(-c2c(Cl)cc(C(F)(F)F)cc2Cl)c(N)c1[S+]([O-])C(F)(F)F (centres unmarked) [fipronil]
Ap-RDL1 GABAr; [5]
  IC50: 0.31 µM and 0.3 to 3 µM
Am-RDL GABAr
  IC50: 0.07 ± 0.2 µM
Vd-RDL1 GABAr
  IC50: > 500 µM
Vd-RDL1 GABAr; fipronil 30 µM, GABA 100 µM
  block of GABA response by fipronil: almost no block
Vd-RDL2 GABAr; [5]
  IC50: 0.77 µM and 0.3 to 3 µM
Vd-RDL3 GABAr
  IC50: 3.64 ± 1.74 µM
[1]; [5]
  IC50: 1.88 µM and 0.3 to 3 µM and 1.8 µM
A. pisum RDL1ad
  IC50: 0.64 ± 0.15 µM
A. pisum RDL1bd
  IC50: 0.18 ± 0.1 µM
A. pisum RDL2b
  IC50: 0.72 ± 0.2 µM
Hs-α1β2γ2
  IC50: 1.1 ± 0.2 µM

## picrotoxin
Vd-RDL1 GABAr; GABA 100 µM
  sensitivity to picrotoxin: insensitive
Vd-RDL1 GABAr; picrotoxin 100 µM, GABA 100 µM
  block of GABA response by picrotoxin: 20%
Vd-RDL1 GABAr; read-out: IC50 (inhibition of the GABA response), GABA 100 µM, inhibitor co-applied
  IC50: > 500 µM
